Laboratory results from patent US8975417B2, “Pyrazolopyrrolidine derivatives and their use in the treatment of disease” (Novartis AG, priority 2013, dated 2015).
pIC50: −log10 of the molar value.

What was measured:
His-Brd3(20-477) = His-Brd3(20-477) (Homo sapiens (Human), UniProt Q15059); experiment: TR-FRET in-vitro binding assay for BRD3; conditions: biochemical
Summary of the method: (§1)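 Assay buffer HEPES pH 7.5/NaCl/Tween20/BSA; protein solution 45 nM, peptide solution 60 nM acetyl-H4 (AcK5,8,12,16). Incubated 30 °C for 35 min; Eu-anti-His6 and SA-APC detection, TR-FRET read.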

[1] = biological target: His-CREBBP (1081-1197) bromodomain (Homo sapiens (Human), UniProt Q92793); experiment: AlphaScreen in-vitro binding assay for CREBBP; conditions: biochemical
His-CREBBP (1081-1197) bromodomain, sequence (Q92793 1081-1197): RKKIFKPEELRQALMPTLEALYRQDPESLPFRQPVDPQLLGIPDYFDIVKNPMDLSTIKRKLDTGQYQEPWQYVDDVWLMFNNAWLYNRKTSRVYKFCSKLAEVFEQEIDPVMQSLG
Summary of the method: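 Ni-chelate acceptor and streptavidin donor beads (45 µg/mL each, in 50 mM HEPES pH 7.5, 150 mM NaCl, 0.02% BSA) were then added for 60 min at room temperature. IC50 came from 8-point non-linear regression.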

[2] = biological target: nuclear BRD4-NUT foci in HCC2494 NUT midline carcinoma cells (Homo sapiens (Human), UniProt O60885+Q86Y26); experiment: Nut-foci formation assay; format: cell-based; conditions: 24 hours, read-out: HCS Brd4-NUT IC50
Summary of the method: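 Read-out is number and intensity of nuclear NUT foci by immunofluorescence imaging, relative to 0.1% DMSO set as 100. Compounds were tested as 3-fold series starting at 10 μM on HCC2494 NUT midline carcinoma cells for 24 h. Four-parameter fitting gave IC50.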

His-Brd2(60-472) = His-Brd2(60-472) (Homo sapiens (Human), UniProt P25440); experiment: TR-FRET in-vitro binding assay for BRD2; conditions: biochemical
His-Brd2(60-472), sequence (P25440 60-472): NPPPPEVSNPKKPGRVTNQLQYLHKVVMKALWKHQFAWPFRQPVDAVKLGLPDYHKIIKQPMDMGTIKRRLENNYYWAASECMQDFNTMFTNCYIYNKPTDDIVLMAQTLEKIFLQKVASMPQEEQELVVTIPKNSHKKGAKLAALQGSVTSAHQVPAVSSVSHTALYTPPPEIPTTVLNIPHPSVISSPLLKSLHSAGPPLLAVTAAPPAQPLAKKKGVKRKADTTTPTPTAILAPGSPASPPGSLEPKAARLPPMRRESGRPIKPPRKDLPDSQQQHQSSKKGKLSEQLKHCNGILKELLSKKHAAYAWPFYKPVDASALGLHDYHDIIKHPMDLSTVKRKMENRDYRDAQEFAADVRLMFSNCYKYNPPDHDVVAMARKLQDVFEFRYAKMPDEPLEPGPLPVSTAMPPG
Summary of the method: as §1

His-Brd3(20-477), sequence (Q15059 20-477): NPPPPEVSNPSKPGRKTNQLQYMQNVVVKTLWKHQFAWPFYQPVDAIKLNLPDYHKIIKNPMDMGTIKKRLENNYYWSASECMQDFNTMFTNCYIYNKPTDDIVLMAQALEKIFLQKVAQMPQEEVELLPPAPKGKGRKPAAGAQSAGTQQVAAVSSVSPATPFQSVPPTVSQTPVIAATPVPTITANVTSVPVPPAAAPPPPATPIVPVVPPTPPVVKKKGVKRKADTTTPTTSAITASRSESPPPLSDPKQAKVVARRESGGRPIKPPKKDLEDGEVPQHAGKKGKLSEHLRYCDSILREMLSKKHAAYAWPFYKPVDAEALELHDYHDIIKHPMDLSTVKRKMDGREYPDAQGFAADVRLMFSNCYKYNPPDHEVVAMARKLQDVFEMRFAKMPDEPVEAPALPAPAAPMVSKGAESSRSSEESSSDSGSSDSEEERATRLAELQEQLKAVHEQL

SMILES	pIC50 (His-Brd3(20-477))	pIC50 [1]	pIC50 [2]	pIC50 (His-Brd2(60-472))
COc1ncccc1-n1nc(C)c2c1C(=O)N(c1cc(C)c3nnn(C)c3n1)C2c1ccc(Cl)cc1 (centres unmarked) [Example 109, 4-(4-chlorophenyl)-5-(3,7-dimethyl-3H-[1,2,3]triazolo[4,5-b]pyridin-5-yl)-1-(2-methoxypyridin-3-yl)-3-methyl-4,5-dihydropyrrolo[3,4-c]pyrazol-6(1H)-one]	7.57	< 4.43	7.36	7.57
Cc1nn(C[C@H](O)C(F)(F)F)c2c1[C@@H](c1ccc(Cl)cc1)N(c1cc(C)c3nnc(C)n3c1)C2=O [Example 167, (R)-4-(4-chlorophenyl)-5-(3,8-dimethyl-[1,2,4]triazolo[4,3-a]pyridin-6-yl)-3-methyl-1-((S)-3,3,3-trifluoro-2-hydroxypropyl)-4,5-dihydropyrrolo[3,4-c]pyrazol-6(1H)-one]	7.35	4.92	7.48	7.38
Cc1cc(N2C(=O)c3nn(C4CC4)c(C)c3C2c2ccc(Cl)cc2)cn2c(C)nnc12 (centres unmarked) [Example 93, 4-(4-chlorophenyl)-2-cyclopropyl-5-(3,8-dimethyl-[1,2,4]triazolo[4,3-a]pyridin-6-yl)-3-methyl-4,5-dihydropyrrolo[3,4-c]pyrazol-6(2H)-one]	7.51	5.51	7.75	7.35
COc1ncccc1-n1nc(C)c2c1C(=O)N(c1cc(C)c(=O)n(C)c1)[C@H]2c1ccc(Cl)cc1 [Example 127, (S)-4-(4-chlorophenyl)-5-(1,5-dimethyl-6-oxo-1,6-dihydropyridin-3-yl)-1-(2-methoxypyridin-3-yl)-3-methyl-4,5-dihydropyrrolo[3,4-c]pyrazol-6(1H)-one]	5.29	< 4.43	< 5.00	5.36
CCc1nn(CCOC)c2c1C(c1ccc(Cl)cc1)N(c1cc(C)c3nnc(C)n3c1)C2=O (centres unmarked) [Example 87, 4-(4-chlorophenyl)-5-(3,8-dimethyl-[1,2,4]triazolo[4,3-a]pyridin-6-yl)-3-ethyl-1-(2-methoxyethyl)-4,5-dihydropyrrolo[3,4-c]pyrazol-6(1H)-one]	7.23	5.01	7.76	7.14
Cc1nn(C2CC2)c2c1C(c1ccc(Cl)cc1)N(c1cc(C)c3nnn(C)c3n1)C2=O (centres unmarked) [Example 110, 4-(4-chlorophenyl)-1-cyclopropyl-5-(3,7-dimethyl-3H-[1,2,3]triazolo[4,5-b]pyridin-5-yl)-3-methyl-4,5-dihydropyrrolo[3,4-c]pyrazol-6(1H)-one]	7.85	< 4.43	8.19	7.74
Cc1nn(C(=O)N(C)C)c2c1C(c1ccc(Cl)cc1)N(c1cc(C)c(=O)n(C)c1)C2=O (centres unmarked) [Example 142, 4-(4-chlorophenyl)-5-(1,5-dimethyl-6-oxo-1,6-dihydropyridin-3-yl)-N,N,3-trimethyl-6-oxo-5,6-dihydropyrrolo[3,4-c]pyrazole-1(4H)-carboxamide]	6.82	5.34	6.83	6.74
Cc1nn(-c2ccnn2C)c2c1C(c1ccc(Cl)cc1)N(c1cc(C)c(=O)n(C)c1)C2=O (racemic) [Example 74, 4-(4-chlorophenyl)-5-(1,5-dimethyl-6-oxo-1,6-dihydropyridin-3-yl)-3-methyl-1-(1-methyl-1H-pyrazol-5-yl)-4,5-dihydropyrrolo[3,4-c]pyrazol-6(1H)-one]	7.04	5.19	7.35	7.15
COc1ncc(-n2nc3c(c2C(C)C)C(c2ccc(Cl)cc2)N(c2ccc4onc(C)c4c2)C3=O)c(OC)n1 (centres unmarked) [Example 54, 4-(4-chlorophenyl)-2-(2,4-dimethoxypyrimidin-5-yl)-3-isopropyl-5-(3-methylbenzo-[d]isoxazol-5-yl)-4,5-dihydropyrrolo[3,4-c]pyrazol-6(2H)-one]	6.52	< 4.43	6.31	6.32
CNC(=O)n1nc(C)c2c1C(=O)N(c1cc(C)c(=O)n(C)c1)C2c1ccc(Cl)cc1 (centres unmarked) [Example 143, 4-(4-chlorophenyl)-5-(1,5-dimethyl-6-oxo-1,6-dihydropyridin-3-yl)-N,3-dimethyl-6-oxo-5,6-dihydropyrrolo[3,4-c]pyrazole-1(4H)-carboxamide]	6.57	< 4.43	6.69	6.48
Cc1cc(N2C(=O)c3nn(C)c(O)c3C2c2ccc(Cl)cc2)cn(C)c1=O (centres unmarked) [Example 73, 4-(4-chlorophenyl)-5-(1,5-dimethyl-6-oxo-1,6-dihydropyridin-3-yl)-3-hydroxy-2-methyl-4,5-dihydropyrrolo[3,4-c]pyrazol-6(2H)-one]	6.70	5.70	< 5.00	6.70
CCn1nc(C)c2c1C(=O)N(c1cc(C)c3nnc(C)n3c1)C2c1ccc(Cl)cc1 (centres unmarked) [Example 116, 4-(4-chlorophenyl)-5-(3,8-dimethyl-[1,2,4]triazolo[4,3-a]pyridin-6-yl)-1-ethyl-3-methyl-4,5-dihydropyrrolo[3,4-c]pyrazol-6(1H)-one]	7.49	4.82	7.57	7.44
Cc1nn(-c2ccnn2C)c2c1[C@@H](c1ccc(Cl)cc1)N(c1cc(C)c3nnc(C)n3c1)C2=O [Example 125, (R)-4-(4-chlorophenyl)-5-(3,8-dimethyl-[1,2,4]triazolo[4,3-a]pyridin-6-yl)-3-methyl-1-(1-methyl-1H-pyrazol-5-yl)-4,5-dihydropyrrolo[3,4-c]pyrazol-6(1H)-one]	7.49	4.68	7.49	7.49
CCc1nn(C2CC2)c2c1C(c1ccc(Cl)cc1)N(c1cc(OC)c3nnc(C)n3c1)C2=O (centres unmarked) [Example 84, 4-(4-chlorophenyl)-1-cyclopropyl-3-ethyl-5-(8-methoxy-3-methyl-[1,2,4]triazolo[4,3-a]pyridin-6-yl)-4,5-dihydropyrrolo[3,4-c]pyrazol-6(1H)-one]	7.21	< 4.43	7.04	7.43
Cc1cc(N2C(=O)c3nn(C4CN(C)C4)c(C)c3C2c2ccc(Cl)cc2)cn2c(C)nnc12 (centres unmarked) [Example 158, 4-(4-chlorophenyl)-5-(3,8-dimethyl-[1,2,4]triazolo[4,3-a]pyridin-6-yl)-3-methyl-2-(1-methylazetidin-3-yl)-4,5-dihydropyrrolo[3,4-c]pyrazol-6(2H)-one]	7.03	5.48	6.99	7.01
CCc1nn(C)c2c1C(c1ccc(Cl)cc1)N(c1cc(OC)c3nnc(C)n3c1)C2=O (centres unmarked) [Example 105, 4-(4-chlorophenol)-3-ethyl-5-(8-methoxy-3-methyl-[1,2,4]triazolo[4,3-a]pyridin-6-yl)-1-methyl-4,5-dihydropyrrolo[3,4-c]pyrazol-6(1H)-one]	6.82	< 4.43	7.01	6.89
CCc1nn(-c2ccnn2C)c2c1C(c1ccc(Cl)cc1)N(c1cc(C)c(=O)n(C)c1)C2=O (centres unmarked) [Example 89, 4-(4-chlorophenyl)-5-(1,5-dimethyl-6-oxo-1,6-dihydropyridin-3-yl)-3-ethyl-1-(1-methyl-1H-pyrazol-5-yl)-4,5-dihydropyrrolo[3,4-c]pyrazol-6(1H)-one]	7.24	5.60	7.35	7.22
